# Measured values as given in PMC5610936 (Biochemical pharmacology, 2017).
# Read-outs that look alike come from different tables or passages of the source.
# Assays:
# NOX2 [1] = target: T1, NOX2 (Homo sapiens, UniProt P04839); experiment: PMA-induced superoxide anion luminescence assay, PMNs; format: cell-based
# HT-29 cells [2] = experiment: Colony formation; format: cell-based, human
# HT-29 cells [3] = experiment: Intracellular ROS by flow cytometry with CM-H2-DCF-DA; format: cell-based, human; conditions: 24 h; for change in DCF fluorescence (intracellular ROS) vs vehicle: 50 nM; for intracellular ROS (DCF) after high concentration: 500 nM
# NOX2 [4] = target: T1, NOX2; experiment: PMA-induced superoxide anion luminescence assay, differentiated HL-60 cells; format: cell-based
# HT-29 cells [5] = experiment: Seahorse oxygen consumption rate / extracellular acidification rate; format: cell-based, human
# HT-29 cells [6] = experiment: MTT cell growth assay; format: cell-based, human; conditions: for 50% growth inhibition of HT-29 cells reached within 72 h: 100 nM, time course up to 72 h; for IC50: Homo sapiens, HT-29, 72 h, read-out: IC50 inhibition of HT-29 cell proliferation
# HT-29 cells [7] = test system: HT-29 cells
# HT-29 cells [8] = experiment: HT-29 cell growth by cell counting after SOD/catalase; format: cell-based, human; conditions: 96 h, 0-2000 U/ml, significant at ≥ 500 U/ml
# [9] = Homo sapiens, HT-29, 240 h, read-out: 10-day treatment IC50, colony formation
# [10] = Homo sapiens, HT-29, 1 h, read-out: 60-min treatment IC50, cellular respiration (OCR), HT-29, 60 min
# [11] = Homo sapiens, HT-29, 24 h, read-out: 24-h treatment IC50, cellular respiration (OCR), HT-29, 24 h
# [12] = read-out: 24-h treatment IC50, cellular respiration (OCR), HT-29, 24 h
# [13] = Homo sapiens, HT-29, read-out: 2-h treatment IC50, colony formation
# [14] = ratio of NOX2 IC50 values, PMN vs HL-60
# [15] = Homo sapiens, HT-29, 1 h, read-out: 60-min treatment IC50, cellular respiration (OCR)
# [16] = Homo sapiens, HT-29, 24 h, read-out: 24-h treatment IC50, cellular respiration (OCR)
# [17] = read-out: 10-day treatment IC50, colony formation, HT-29, 10-day exposure
# [18] = read-out: 30-min treatment IC50, cellular respiration (OCR), HT-29, 30 min
# [19] = read-out: 60-min treatment IC50, cellular respiration (OCR), HT-29, 60 min
molecule,measurement,setting,value
"O=[N+]([O-])c1ccc2c(c1)[I+]c1cc([N+](=O)[O-])ccc1-2.[Br-] [compound 392, Dibenziodolium, 3,7-dinitro-, bromide]",IC50,NOX2 [1],850 ± 197 nM
same,IC50,HT-29 cells [2]; [9],27 ± 28 nM
same,change in DCF fluorescence (intracellular ROS) vs vehicle,HT-29 cells [3],left-shift (decrease) in DCF fluorescence
same,intracellular ROS (DCF) after high concentration,HT-29 cells [3],did not demonstrate this effect
same,fold more potent in HL-60 leukemia line compared to PMNs,NOX2 [4],2- to 5 fold
same,effect on cellular metabolic activity (OCR/ECAR),"HT-29 cells [5]; 24 h, concentrations ≤ 316 nM",no adverse effects
same,IC50,HT-29 cells [5]; [10],2180 nM
same,IC50,HT-29 cells [5]; [11],~800 nM
same,IC50,HT-29 cells [5]; [12],801 ± 194 nM
"Brc1ccc2c(c1)[I+]c1cc(Br)ccc1-2.[Br-] [compound 104, Dibenziodolium, 3,7-dibromo-, bromide]",IC50,NOX2 [1],481 ± 44 nM
same,IC50,HT-29 cells [2]; [9],9 ± 2 nM
same,IC50,HT-29 cells [2]; [13],1220 nM
same,change in DCF fluorescence (intracellular ROS) vs vehicle,HT-29 cells [3],left-shift (decrease) in DCF fluorescence
same,intracellular ROS (DCF) after high concentration,HT-29 cells [3],did not demonstrate this effect
same,50% growth inhibition of HT-29 cells reached within 72 h,HT-29 cells [6],achieved 50% growth inhibition
same,IC50,HT-29 cells [6],150 to 250 nM
same,fold more potent in HL-60 leukemia line compared to PMNs,NOX2 [4]; [14],2- to 5 fold
same,IC50,HT-29 cells [5]; [15],1470 nM
same,IC50,HT-29 cells [5]; [16],74 ± 54 nM
"O=[N+]([O-])c1cccc2c1-c1c(cccc1[N+](=O)[O-])[I+]2.[Br-] [compound 521, Dibenziodolium, 1,9-dinitro-, salt with bromide (1:1)]",IC50,HT-29 cells [2]; [17],488 ± 101 nM
same,"24-h treatment IC50, cellular respiration (OCR)","HT-29 cells [5]; HT-29, 24 h",No effect
same,IC50,HT-29 cells [5]; [18],1670 nM
same,IC50,HT-29 cells [5]; [19],1000 nM
"O=[N+]([O-])c1ccc2c(c1)[I+]c1ccccc1-2.[Cl-] [compound 428, Dibenz[b,d]iodolium, 3-nitro-, chloride]",IC50,HT-29 cells [2]; [9],11 ± 6 nM
same,IC50,HT-29 cells [2]; [13],77 ± 12 nM
same,IC50,"HT-29 cells [2]; Homo sapiens, HT-29, read-out: 6-h treatment IC50, colony formation",29 ± 23 nM
same,change in DCF fluorescence (intracellular ROS) vs vehicle,HT-29 cells [3],left-shift (decrease) in DCF fluorescence
same,intracellular ROS (DCF) after high concentration,HT-29 cells [3],increases in intracellular ROS
same,50% growth inhibition of HT-29 cells reached within 72 h,HT-29 cells [6],achieved 50% growth inhibition
same,IC50,HT-29 cells [5]; [10],211 ± 33 nM
same,IC50,HT-29 cells [5]; [11],45 ± 23 nM
"c1ccc2c(c1)[I+]c1ccccc1-2 [DPI, Diphenylene iodonium, reference compound]",IC50,HT-29 cells [2]; [9],39 ± 23 nM
same,IC50,HT-29 cells [2]; [13],9260 nM
same,change in DCF fluorescence (intracellular ROS) vs vehicle,HT-29 cells [3],left-shift (decrease) in DCF fluorescence
same,intracellular ROS (DCF) after high concentration,HT-29 cells [3],increases in intracellular ROS
same,IC50,HT-29 cells [6],~450 nM
same,effect on mitochondrial ROS production (MitoSox),"HT-29 cells [7]; 1 μM, 2 h",right shift in MitoSox fluorescence
same,effect on mitochondrial ROS production (MitoSox),"HT-29 cells [7]; concentrations ≤ 200 nM, 24 h",no effect
same,decrease in oxygen consumption,"HT-29 cells [5]; 2 μM, immediate effect",80%
same,concentration at which ECAR increased,"HT-29 cells [5]; HT-29, 24-h treatment",316 nM
same,concentration at which OCR began to decrease,"HT-29 cells [5]; HT-29, 24-h treatment",31.6 nM
same,IC50,HT-29 cells [5]; [15],4570 nM
same,IC50,HT-29 cells [5]; [16],200 ± 245 nM
"COC(=O)c1ccc2c(c1)[I+]c1ccccc1-2.Cc1ccc(S(=O)(=O)[O-])cc1 [compound 140, Dibenz[b,d]iodolium, 3-(methoxycarbonyl)-, salt with 4-methyl-benzenesulfonic acid (1:1)]",IC50,HT-29 cells [2]; [17],40 ± 32 nM
same,intracellular ROS (DCF) after high concentration,HT-29 cells [3],did not demonstrate this effect
same,fold more potent in HL-60 leukemia line compared to PMNs,NOX2 [4]; [14],2- to 5 fold
same,IC50,HT-29 cells [5]; [12],76 ± 21 nM
same,IC50,HT-29 cells [5]; [18],678 ± 201 nM
same,IC50,HT-29 cells [5]; [19],475 ± 116 nM
"catalase: ROS detoxifying enzyme, human catalase (Sigma Aldrich) (protein, UniProt P04040 2-527, looked up) Catalase: ADSRDPASDQMQHWKEQRAAQKADVLTTGAGNPVGDKLNVITVGPRGPLLVQDVVFTDEMAHFDRERIPERVVHAKGAGAFGYFEVTHDITKYSKAKVFEHIGKKTPIAVRFSTVAGESGSADTVRDPRGFAVKFYTEDGNWDLVGNNTPIFFIRDPILFPSFIHSQKRNPQTHLKDPDMVWDFWSLRPESLHQVSFLFSDRGIPDGHRHMNGYGSHTFKLVNANGEAVYCKFHYKTDQGIKNLSVEDAARLSQEDPDYGIRDLFNAIATGKYPSWTFYIQVMTFNQAETFPFNPFDLTKVWPHKDYPLIPVGKLVLNRNPVNYFAEVEQIAFDPSNMPPGIEASPDKMLQGRLFAYPDTHRHRLGPNYLHIPVNCPYRARVANYQRDGPMCMQDNQGGAPNYYPNSFGAPEQQPSALEHSIQYSGEVRRFNTANDDNVTQVRAFYVNVLNEEQRKRLCENIAGHLKDAQIFIQKKAVKNFTEVHPDYGSHIQALLDKYNAEKPKNAIHTFVQSGSHLAAREKANL",effect on proliferation of HT-29 cells vs control-treated cells,HT-29 cells [8],reduced the proliferation
